Laboratory results published in the NIST ThermoML archive (doi:10.1021/acs.jced.5b00094).
Numbers after ± are expanded uncertainties.

Experiment: wn = mass fraction of the nth substance listed
Conditions: 348 K, 101 kPa, Liquid, Pycnometric method

## [Cl-].[K+] [potassium chloride] + O
w1 = 0.332
  mass density: 1204 ± 1.6 kg/m3

## [Cl-].[Cl-].[Sr+2] [strontium chloride] + O
w1 = 0.4775
  mass density: 1620.5 ± 21 kg/m3

## [Cl-].[Na+] [sodium chloride] + O
w1 = 0.2745
  mass density: 1183 ± 1.4 kg/m3
